The text below walks through data of patent US20230310573A1, “Stabilized Vaccine Compositions” (priority 2020, published 2023).

Data set [1] addresses ectodomain of H1N1 A/Brisbane/59/2007 (SEQ ID NO: 7) (Influenza A virus, UniProt P03452). Description: Heat stress of influenza A HA ectodomain, trimer and monomer content by analytical SEC. In kind it is physicochemical. The following applies: 6 weeks at 40 degree Celsius; 1:6 HA trimer:compound ratio.
In data set [2] the target is UFV180933 (HA of B/Brisbane/60/08) (Influenza B virus, UniProt P03460). In kind it is cell-based. The following applies: 1:90 HA trimer:compound ratio.
Data set [3] addresses T1, UFV180300 (HA of B/Colorado/06/2017) (Influenza B virus, UniProt P03460).
T1 construct: SortA (sortase) tag (C); His-tag (C); made in house; host or cells: ExpiCHO
In words: Melting temperature (Tm50) of influenza B HA trimer by DSF. In kind it is physicochemical. The following applies: 1:6 HA trimer:compound ratio.

Data set [4] deals with T2, UFV170091 (HA of B/Massachussetts/2/12) (Influenza B virus, UniProt P03460).
T2 construct: Ectodomain of wild type HA of B/Massachussetts/2/12 fused to a foldon domain at the C-terminus; His-tag (C); made in house; host or cells: ExpiCHO
The description is as above. In kind it is physicochemical. The following applies: 1:6 HA trimer:compound ratio.

Take `N#CCCCn1c(CN2C(=O)C3(CN(C(=O)C4(O)CC4)C3)c3ccccc32)cc2cc(Cl)ccc21` [Compound XV, 4-[5-chloro-2-[[1-(1-hydroxycyclopropanecarbonyl)-2′-oxo-spiro[azetidine-3,3′-indoline]-1′-yl]methyl]indol-1-yl]butanenitrile]: in data set [1], the “trimer content after heat stress (SEC)” value is “preserved the trimer content”.
On to `c1ccc(CN2CCC(Nc3ccccc3)(c3ccccc3)CC2)cc1` [XXVII, 1-benzyl-N,4-diphenyl-piperidin-4-amine], for which the “monomer and trimer content in supernatant (SEC)” value in data set [2] was “hardly monomer and mostly trimer”. Besides, the “increase of the Tm (DSF)” value in data set [3] is 1 °C; in data set [4] it was 0.5 °C.
